How the values were obtained:
[1] = target: T1, Motilin Receptor (Homo sapiens, UniProt O43193); experiment: Ca2+ assay (FLIPR) for the GPCR motilin receptor, agonist and antagonist mode; format: cell-based; conditions: antagonist mode
T1 construct: host or cells: Ca2+ optimized hematopoietic cell lines (rat)
Description: (§1) Ca^2+ Assays for the GPCRs Motilin Receptor, Prostaglandin F (FP) Receptor, 5-hydroxytryptamine 2B (5-HT2B) Receptor, and Purinoreceptor P2Y1
(§2) Assays were performed using on a FLIPR^TETRA fluorometric imaging plate reader (Molecular Devices) with ScreenWorks Version 2 (Molecular Devices) as device operating and data analysis software.
(§3) Dose dependent agonist and antagonist activities were determined. Percentage activation and percentage inhibition values were determined.
(§4) Percentage activation was determined upon initial addition of the sample compounds followed by 10 minutes incubation at 25° C. Following compound incubation, reference agonists were added at EC80 to determine percentage inhibition.
(§5) Reference agonists were purchased from reputable commercial vendors and prepared according to each ligand's specifications. All handling of ligands were done to ensure proper control throughout the experiments.
(§6) Example compounds were weighed on a Microbalance (Mettler MX5) and dissolved in 100% DMSO to a final concentration of 2.5 mM and subsequently diluted into the assay buffer.
(§7) The Assay buffer was a supplemented HBSS (Hank's Balanced Salt Solution). HBSS was supplemented with 20 mM HEPES (4-(2-hydroxyethyl)-piperazin-1-ethansulfonic acid) and 2.5 mM Probenecid (Sigma P8761).
(§8) GPCR assays were performed using Ca^2+ optimized hematopoietic cell lines (rat) with cultures never exceeding 90% confluency. […] After seeding, the assay plates were incubated for forty-five (45) minutes at room temperature. After room temperature incubation, the assay plates were incubated at 37° C. 5% CO2 for 24 hours prior to assaying.
(§9) All GPCR assays were performed using Fluo-8 Ca^2+ dye. Ca^2+ dye was prepared at 1× dye concentration in GPCR assay buffer. After 24 hours of incubation, cells were washed with GPCR assay buffer, and then Ca^2+-dye (100 μL/well) was added.
(§10) The plates were incubated for 90 minutes at 30° C. 5% CO2 prior to FLIPR assay.
(§11) Compound plates were prepared to add 50 μL/well during the agonist assay mode. During the FLIPR assay, 50 μL/well from the compound plate was diluted 3-fold into the existing 100 μL/well from the dye loading step. Therefore all compounds were prepared as 3× the final concentration desired in the assay.
(§12) After completion of the first single addition assay run, assay plate was removed from the FLIPR Tetra and placed at 25° C. for seven (7) minutes before antagonist assay.
(§13) Using the EC80 values determined during the agonist assay, all pre-incubated sample compound and reference antagonist (if applicable) wells were stimulated at the EC80 of the reference agonist. As reference ligands for the first three assays their obvious natural ligands motilin, prostaglandin F2α, and serotonin (5-HT, 5-Hydroxytryptamine) were used; and for the P2Y1 assay 2MeSATP (2-methyl-thio-adeno-sine 5′-triphosphate, i.e. (2R,3S,4R)-5-(6-amino-2-methylsulfanyl-purin-9-yl)-3,4-dihydroxy-tetrahydrofuran-2-yl]methyl (hydroxy-phosphonooxy-phosphoryl)hydrogen phosphate) was applied.
(§14) After the addition of the reference agonist fluorescence was monitored for 180 sec using FLIPR Tetra.
(§15) Data Analysis and Results:
(§16) From the FLIPR data, with negative control correction enabled, the maximum statistic for each well was exported and percentage activation relative to Emax control was calculated.

[2] = target: T2, Prostaglandin F (FP) Receptor (Homo sapiens, UniProt P43088); experiment: Ca2+ assay (FLIPR) for the GPCR prostaglandin F (FP) receptor, agonist and antagonist mode; format: cell-based; conditions: 10 μM
T2 construct: host or cells: Ca2+ optimized hematopoietic cell lines (rat)
Procedure, shortened: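 Ca2+-optimized rat hematopoietic cells carrying the receptor were loaded with Fluo-8 in HBSS/20 mM HEPES/2.5 mM probenecid and read on FLIPR. Agonist mode: 10 min compound incubation at 25 °C, % activation relative to Emax. Antagonist mode: stimulation at EC80 of the reference agonist (prostaglandin F2α for FP, 2MeSATP for P2Y1), fluorescence monitored 180 s.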

[3] = target: T3, 5-hydroxytryptamine 2B (5-HT2B) Receptor (Homo sapiens, UniProt P41595); experiment: Ca2+ assay (FLIPR) for the GPCR 5-HT2B receptor, agonist and antagonist mode; format: cell-based
T3 construct: host or cells: Ca2+ optimized hematopoietic cell lines (rat)
Description: as §1, §2, §3, §4, §5, §6, §7, §8, §9, §10, §11, §12, §13, §14, §15, §16

[4] = in vitro; format: in vitro ADME, human; conditions: human, plasma, 10 µM; for Plasma Stability 240 min hum [% remain.]: 4 h
[5] = in vitro; format: in vitro ADME, mouse; conditions: both, CD-1, mouse, plasma, 10 µM; for Plasma Stability 240 min mouse [% remain.]: 4 h
Description: Example compounds were dissolved in DMSO/H2O 90:10 to a final concentration of 10 mM for plasma stability determination and metabolic stability determination.
Human plasma (3-5 donors, Blutspendedienst SRK, Basel) and CD-1 mouse plasma (mixed gender pool >50 animals, Innovative Research, CA, USA) are both sodium citrate stabilized. The assay is performed in triplicates at 10 μM compound concentration and 37° C. Samples are taken at 0, 15, 60, and 240 minutes and stopped by precipitation with 2 volumes of acetonitrile. The supernatant is collected, evaporated and reconstituted in a 5% acetonitrile solution to be analyzed by HPLC/MS/MS. The resulting peak area counts are expressed in percent of the 0 value and used to determine the endpoint stability in % and the half life in minutes. In order to monitor assay integrity the degradation of propantheline is assayed with every experimental set.

[6] = Metabolic stability assay, human microsomes; format: in vitro ADME; conditions: human, microsomes; for half-life at 10 µM: both sexes; for Metabolic Stability 60 min hum [% remain.]: 1 h
[7] = Metabolic stability assay, CD-1 mouse microsomes; format: in vitro ADME; conditions: CD-1, mouse, microsomes; for half-life at 10 µM: both sexes; for Metabolic Stability 60 min mouse [% remain.] / Metabolic Stability T½ [min] mouse: both, 10 µM; for Metabolic Stability 60 min mouse [% remain.]: 1 h
[8] = Plasma stability assay, rat plasma (values in parentheses); format: in vitro ADME; conditions: value in parentheses
[9] = Metabolic stability assay, rat microsomes (values in parentheses); format: in vitro ADME; conditions: value in parentheses
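Throughout, for Plasma Stability 240 min mouse [% remain.]: sodium citrate stabilized mouse plasma, parent compound quantified by HPLC/MS/MS relative to its peak area at time zero, run in triplicate.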
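Throughout, for Plasma Stability T½ [min] mouse: sodium citrate stabilized mouse plasma, parent compound quantified by HPLC/MS/MS relative to its peak area at time zero, run in triplicate.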

T3 sequence (P41595 whole entry, species assumed): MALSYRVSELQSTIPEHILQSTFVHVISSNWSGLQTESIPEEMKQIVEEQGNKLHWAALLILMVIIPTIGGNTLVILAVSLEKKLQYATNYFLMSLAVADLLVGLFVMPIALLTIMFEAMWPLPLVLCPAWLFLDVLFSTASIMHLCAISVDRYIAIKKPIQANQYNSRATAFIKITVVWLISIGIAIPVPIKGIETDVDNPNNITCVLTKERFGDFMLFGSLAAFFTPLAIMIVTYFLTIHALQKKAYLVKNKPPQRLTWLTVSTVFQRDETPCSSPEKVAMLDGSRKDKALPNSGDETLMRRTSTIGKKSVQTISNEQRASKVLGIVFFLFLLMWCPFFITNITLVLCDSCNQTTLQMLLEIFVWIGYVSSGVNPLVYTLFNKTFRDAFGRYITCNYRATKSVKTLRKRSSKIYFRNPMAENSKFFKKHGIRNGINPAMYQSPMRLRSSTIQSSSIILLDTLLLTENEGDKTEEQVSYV
T1 sequence (O43193 whole entry, species assumed): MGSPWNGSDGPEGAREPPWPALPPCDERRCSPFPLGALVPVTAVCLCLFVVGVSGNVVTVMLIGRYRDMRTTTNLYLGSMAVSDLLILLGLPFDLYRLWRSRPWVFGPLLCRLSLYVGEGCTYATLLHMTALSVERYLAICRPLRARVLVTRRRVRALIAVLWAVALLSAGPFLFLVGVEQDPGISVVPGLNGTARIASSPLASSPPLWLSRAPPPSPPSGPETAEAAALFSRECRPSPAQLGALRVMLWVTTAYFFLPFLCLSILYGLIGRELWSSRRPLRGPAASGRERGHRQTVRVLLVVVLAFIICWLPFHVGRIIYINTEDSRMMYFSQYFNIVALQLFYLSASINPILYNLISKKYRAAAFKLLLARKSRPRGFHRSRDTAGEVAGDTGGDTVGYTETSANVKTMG
T2 sequence (P43088 whole entry): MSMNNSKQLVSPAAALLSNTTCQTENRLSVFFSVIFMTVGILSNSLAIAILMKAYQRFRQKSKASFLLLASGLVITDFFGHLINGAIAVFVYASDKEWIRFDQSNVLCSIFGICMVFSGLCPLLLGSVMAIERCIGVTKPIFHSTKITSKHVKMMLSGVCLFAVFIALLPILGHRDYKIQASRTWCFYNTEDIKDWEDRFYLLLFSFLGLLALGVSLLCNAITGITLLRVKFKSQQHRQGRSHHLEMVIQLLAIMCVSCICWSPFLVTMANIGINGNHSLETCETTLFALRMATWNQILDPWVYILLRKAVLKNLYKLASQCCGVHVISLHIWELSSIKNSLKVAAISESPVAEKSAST

SMILES	IC50 [1] [µM]	inhibition at 10 µM ([1]; at 10 μM) [%]	inhibition at 10 µM [2] [%]	EC50 [3] [µM]	Agonist activity [% activation at 12.5 μM] [3] [%]	Plasma Stability T½ [min] hum [4] [min]	Plasma Stability 240 min hum [% remain.] [4] [% remain.]	Plasma Stability T½ [min] mouse [5] [min]	Plasma Stability 240 min mouse [% remain.] [5] [% remain.]	half-life at 10 µM [6] [min]	Metabolic Stability 60 min hum [% remain.] ([6]; both, 10 µM)	half-life at 10 µM [7] [min]	Metabolic Stability 60 min mouse [% remain.] [7] [% remain.]	Metabolic Stability T½ [min] mouse [7] [min]	Metabolic Stability T½ [min] hum ([6]; both, 10 µM) [min]	Plasma Stability 240 min (rat) [% remain.] [8]	Plasma Stability T½ [min] (rat) [8]	Metabolic Stability 60 min (rat) [% remain.] [9] [% remain.]	Metabolic Stability T½ [min] (rat) [9]	half-life at 10 µM ([9]; read-out: Metabolic Stability T½ [min] (rat))
CN1CC(=O)N2C[C@@H](NC(=O)Cc3c[nH]c4ccccc34)C[C@H]2COc2ccc(F)cc2C(=O)N(C)[C@H](C(=O)NCCc2c[nH]c3ccccc23)CCC1=O [Ex. 12, (2S,11S,19aS)-15-fluoro-2-{[2-(1H-indol-3-yl)acetyl]amino}-N-[2-(1H-indol-3-yl)ethyl]-7,12-dimethyl-5,8,13-trioxo-2,3,6,7,8,9,10,11,12,13, 19,19a-dodecahydro-1H,5H-pyrrolo[2,1-c] [1,4,7,12]benzoxatriazacyclopentadecine-11-carboxamide]	2.7	95	44	3.3	36	> 240	99	> 240	100	17	7	35	33	–	–	–	–	–	–	–
CC(=O)N[C@H]1C[C@H]2COc3ccc(F)cc3C(=O)N(C)[C@H](C(=O)NCCc3c[nH]c4ccccc34)CCC(=O)N(C)CC(=O)N2C1 [Ex. 9, (2S,11S,19aS)-2-(acetylamino)-15-fluoro-N-[2-(1H-indol-3-yl)ethyl]-7,12-dimethyl-5,8,13-trioxo-2,3,6,7,8,9,10,11,12,13,19,19a-dodecahydro-1H,5H-pyrrolo[2,1-c] [1,4,7,12]benzoxatriazacyclopentadecine-11-carboxamide]	–	–	–	12	48	> 240	99	> 240	93	32	20	–	80	> 60	–	–	–	–	–	–
CN(C)CC(=O)N[C@H]1C[C@H]2COc3ccc(F)cc3C(=O)N(C)[C@H](C(=O)NCCc3c[nH]c4ccccc34)CCC(=O)N(C)CC(=O)N2C1 [Ex. 16, (2S,11S,19aS)-2-{[2-(dimethylamino)acetyl]amino}-15-fluoro-N-[2-(1H-indol-3-yl)ethyl]-7,12-dimethyl-5,8,13-trioxo-2,3,6,7,8,9,10,11, 12,13,19,19a-dodecahydro-1H,5H-pyrrolo [2,1-c] [1,4,7,12]benzoxatriazacyclopentadecine-11-carboxamide]	–	–	–	6.6	45	> 240	95	> 240	97	38	31	–	79	> 60	–	–	–	–	–	–
CN(C)CCNC(=O)[C@@H]1COCC(=O)N2C[C@@H](NC(=O)Cc3ccc4ccccc4c3)C[C@H]2COc2cccc(c2)C(=O)N1C [Ex. 374, (4S,6S,13S)-N-[2-(dimethylamino)ethyl]-14-methyl-6-{[2-(2-naphthyl)acetyl]amino}-9,15-dioxo-2,11-dioxa-8,14-diazatricyclo[14.3.1.0^4,8]icosa-1(20),16,18-triene-13-carboxamide]	–	–	–	–	–	> 240	57	–	–	–	61	–	94	> 60	> 60	(82) % remain.	(240) min	90	60 (60) min	–
CN1CC(=O)N2C[C@@H](NC(=O)OC(C)(C)C)C[C@H]2COc2ccc(F)cc2C(=O)N(C)[C@H](C(=O)NCCc2c[nH]c3ccccc23)CCC1=O [Ex. 30, tert-butyl N-[(2S,11S,19aS)-15-fluoro-11-({[2-(1H-indol-3-yl)ethyl]amino}carbonyl)-7,12-dimethyl-5,8,13-trioxo-2,3,6,7,8,9,10,11,12,13,19,19a-dodecahydro-1H,5H-pyrrolo[2,1-c] [1,4,7,12]benzoxatriazacyclopentadecin-2-yl]carbamate]	–	–	–	3.3	48	> 240	85	> 240	100	22	2	–	55	> 60	–	–	–	–	–	–
CC(C)CN[C@H]1C[C@H]2COc3cccc(c3)C(=O)N(C)[C@H](C(=O)NCc3ccc4ccccc4c3)COCC(=O)N2C1 [Ex. 373, (4S,6S,13S)-6-(isobutylamino)-14-methyl-N-(2-naphthylmethyl)-9,15-dioxo-2,11-dioxa-8,14-diazatricyclo[14.3.1.0^4,8]icosa-1(20),16,18-triene-13-carboxamide]	–	–	–	–	–	> 240	55	–	–	12	12	36	39	–	–	(100) % remain.	(240) min	0	–	7

Source: patent publication US9512139B2, “Conformationally constrained, fully synthetic macrocyclic compounds” (POLYPHOR AG, priority 2009, dated 2016)
